According to PubChem BioAssay AID651733 (The Scripps Research Institute Molecular Screening Center, 2012):
Several values for one entry are separate records, joined by “and”; a condition that tells them apart may be missing. Equal values may be shown once. Activity calls are given as the source filed them. No rule for the calls is given here.

Molecular target: Perilipin-5 (Homo sapiens) + 1-acylglycerol-3-phosphate O-acyltransferase ABHD5 (Homo sapiens) (UniProt Q00G26+Q8WTS1)
Test: ABHD5-PLIN5 interaction inhibitors, dose response, cell lysate, luminescence, proteins expressed in HEK293T (AID 651733);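 also: split Gaussia princeps luciferase complementation between ABHD5 and MLDP fusion proteins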

Chain of Perilipin-5 (Homo sapiens) + 1-acylglycerol-3-phosphate O-acyltransferase ABHD5 (Homo sapiens) (Q00G26 whole entry, looked up, the tested form may be a part): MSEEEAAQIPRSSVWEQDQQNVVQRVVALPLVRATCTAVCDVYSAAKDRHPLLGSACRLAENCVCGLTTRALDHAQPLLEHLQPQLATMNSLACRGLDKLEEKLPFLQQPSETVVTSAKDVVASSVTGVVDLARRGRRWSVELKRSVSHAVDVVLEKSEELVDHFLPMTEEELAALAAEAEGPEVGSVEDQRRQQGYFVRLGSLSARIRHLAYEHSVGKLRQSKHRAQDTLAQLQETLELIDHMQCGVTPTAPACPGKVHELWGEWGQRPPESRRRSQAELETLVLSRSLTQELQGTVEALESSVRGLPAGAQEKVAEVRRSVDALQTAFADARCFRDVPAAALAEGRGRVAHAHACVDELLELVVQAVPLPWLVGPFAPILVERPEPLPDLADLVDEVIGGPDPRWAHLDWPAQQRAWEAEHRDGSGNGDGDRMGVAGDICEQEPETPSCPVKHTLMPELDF
Chain of Perilipin-5 (Homo sapiens) + 1-acylglycerol-3-phosphate O-acyltransferase ABHD5 (Homo sapiens) (Q8WTS1 whole entry, looked up, the tested form may be a part): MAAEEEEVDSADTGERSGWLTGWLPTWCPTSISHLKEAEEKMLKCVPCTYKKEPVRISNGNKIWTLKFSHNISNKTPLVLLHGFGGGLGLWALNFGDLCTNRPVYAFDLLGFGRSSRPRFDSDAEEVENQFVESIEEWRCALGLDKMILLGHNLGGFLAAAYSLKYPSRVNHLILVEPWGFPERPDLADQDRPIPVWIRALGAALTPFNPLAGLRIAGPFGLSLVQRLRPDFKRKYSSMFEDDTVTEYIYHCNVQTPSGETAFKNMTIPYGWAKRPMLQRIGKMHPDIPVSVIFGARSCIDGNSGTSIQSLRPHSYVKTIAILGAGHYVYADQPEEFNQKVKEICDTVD

| Structure (SMILES) | IC50 |
| --- | --- |
| COc1ccc(/C=C/C(=O)c2cc(F)ccc2OC(=O)c2ccc(OC)c(OC)c2)cc1OC | 3.22 µM |
| O=C(O)CC(O)(CC(=O)O)C(=O)O | 3.54 µM |
| CCN(CC)CCC(C)OC(c1ccccc1)c1ccccc1 (configuration not stated) | 3.29 µM |
| CCN1C/C(=C/c2ccc(OC)c(O)c2)C(=O)/C(=C/c2ccc(OC)c(O)c2)C1 | 7.28 µM |
| CCCCCNC(=O)C(C1CC1)n1c(=O)c(-c2ccco2)nc2ccccc21 (configuration not stated) | 9.99 µM |
| CC(=O)Oc1c(Br)cc(N(C(C)=O)S(=O)(=O)c2ccccc2)c2ccccc12 | inactive |
| COc1cc(OC)cc(C(=O)NC(=S)N(Cc2ccccc2)C(C)C)c1 | inactive |
| O=C1NC(=O)N(c2ccccc2F)C(=O)/C1=C/c1ccc(Oc2ccc([N+](=O)[O-])cn2)cc1 | 7.53 µM |
| COc1cc(C)c2sc3ccccc3c(=O)c2c1NCCN(C)C | 3.94 µM |
| O=C(/C=C/Sc1ccccc1)c1ccc(Cl)cc1 | 4 µM |
| CC(O)CC(=O)OC[C@]12CC[C@H]3[C@@](C)(CC[C@H]4C(C)(C)CCC[C@]34C)[C@@H]1CC(C1=CC(=O)OC1O)O2 (some centres not stated) | 1.37 µM |
| NC(=O)CCN1CCN(CCOC2Cc3cc(Cl)ccc3Sc3ccccc32)CC1 (configuration not stated) | inactive |
| C#CCN(C[C@@H]1[C@@H](OC(=O)NCCCCCC)[C@@H](OC(=O)NCCCCCC)Cn2c(=O)ccc(=O)n21)S(=O)(=O)c1ccc(C)cc1 | 6.47 µM |
| NC(=NCCCCCCN=C(N)/N=C(\N)Nc1ccc(Cl)cc1)/N=C(\N)Nc1ccc(Cl)cc1 | 6 µM and 4.02 µM |
| Cc1cc(C)c(NC(=O)CN2CCN3CCCC3C2)c(C)c1 (configuration not stated) | 4.81 µM |
| COc1ccc(NC(=S)N(CCCN2CCCC2)Cc2cccn2Cc2ccc(Cl)cc2)cc1Cl | inactive |
| CCOC(=O)c1c(NC(C)=O)sc2c1CCC(C=O)=C2Sc1ccccc1 | 3.1 µM |
| COc1ccc(NC(=O)C(c2ccc(OC)cc2)n2c(=O)c(-c3ccco3)nc3ccccc32)cc1 (configuration not stated) | inactive |
| COc1ccc(C(C(=O)NCc2ccccc2)n2c(=O)c(-c3ccco3)nc3ccccc32)cc1 (configuration not stated) | 5.37 µM |
| CC1=CC2C(C(O)CC3(C)C2CC(C)C32OCOC23COCO3)C2(C)C/C(=C\O)C(=O)C=C12 (configuration not stated) | 3.6 µM |
| CCc1nnc(NC(=O)c2nc(S(=O)(=O)Cc3ccccc3)ncc2Cl)s1 | 5.18 µM |
| CC1CN(Cc2c(O)ccc3c2oc(=O)c2ccccc23)CC(C)O1 (configuration not stated) | 4.77 µM |
| O=C(C[n+]1cccc(CNC(=O)c2ccc(OC(F)F)cc2)c1)Nc1cccc(C(F)(F)F)c1 | inactive |
| CCC1(C)N=C(c2ccc3c(c2)OCO3)CC(c2ccccc2O)N1 (configuration not stated) | 1.93 µM |
| CC(C)(C)NC(=O)C(c1ccc(C#N)cc1)n1c(=O)c(-c2ccco2)nc2ccccc21 (configuration not stated) | 2.52 µM |

| Structure (SMILES) | IC50 |
| --- | --- |
| CCCCNC(=O)Nc1ccc2c(c1)N(C)C(=O)c1ccccc1S2 | 3.6 µM |
| CCOC(=O)/C(=C\c1ccc(Cl)cc1)c1nc2sc(C)c(C)c2c(=O)[nH]1 | 0.862 µM |
| Cc1cccc(C)c1OCc1cn(CC(=O)c2ccc(O)cc2)nn1 | 5.07 µM |
| Cc1ccc(C(=O)/C=C/c2cc(Br)cc(Br)c2O)o1 | inactive |
| CCOC1=CC2=C(C(=O)C(Cl)=CC2=O)[C@@H]2CN(S(=O)(=O)c3ccc(C)cc3)[C@@H](c3ccccc3)[C@H]12 | 2.25 µM |
| O=C1NC(=O)N(Cc2ccccc2)C(=O)/C1=C\C=C\c1ccco1 | 2.53 µM |
| COc1ccc(/C=C\C(=O)CC(O)(c2ccccc2)C(F)(F)F)cc1 (configuration not stated) | 1.97 µM |
| CC(C)(C)NC(=O)C(c1ccncc1)n1c(=O)c(-c2ccco2)nc2ccccc21 (configuration not stated) | 4.21 µM |
| CN(C)CCN(Cc1ccco1)c1ccccn1 | 4.4 µM |
| Cc1cccc(C)c1NC(=O)C(c1cccc2ccccc12)n1c(=O)c(-c2ccco2)nc2ccccc21 (configuration not stated) | 4.15 µM |
| COc1ccc(C(C(=O)Nc2c(C)cccc2C)n2c(=O)c(-c3ccco3)nc3ccccc32)cc1 (configuration not stated) | 4.29 µM |
| COc1ccc(NC(=O)C(c2ccc(C#N)cc2)n2c(=O)c(-c3ccco3)nc3ccccc32)cc1 (configuration not stated) | inactive |
| CC(=O)Nc1ccc(S(=O)(=O)N2c3ccc(F)cc3CCC2C)cc1 (configuration not stated) | inactive |
| O=C(NC1CCCCC1)C(c1ccc(-c2ccccc2)cc1)n1c(=O)c(-c2ccco2)nc2ccccc21 (configuration not stated) | 4.1 µM |
| Cc1ccc(CC2(OCCN(C)C)CCC(C(C)(C)C)CC2)cc1 (configuration not stated) | 4.85 µM |
| COc1ccc(-c2cc(N)n(S(=O)(=O)c3c(F)c(F)c(F)c(F)c3F)n2)cc1OC | inactive |
| N#Cc1ccc(C(C(=O)Nc2ccc3c(c2)OCCO3)n2c(=O)c(-c3ccco3)nc3ccccc32)cc1 (configuration not stated) | inactive |
| CCN(CCCc1ccccc1)CCCc1ccccc1 | 2.62 µM |
| CCSc1nnc(NC(=O)c2nc(S(=O)(=O)Cc3ccc(F)cc3)ncc2Cl)s1 | 3.78 µM |
| O=C(NCc1ccccc1)C(c1ccc(C(F)(F)F)cc1)n1c(=O)c(-c2ccco2)nc2ccccc21 (configuration not stated) | 3.15 µM |
| O=C(NCc1ccccc1)C(c1ccccc1F)n1c(=O)c(-c2ccco2)nc2ccccc21 (configuration not stated) | 4.43 µM |
| O=C(/C(=C/O)N=Nc1ccc(Cl)cc1)c1ccncc1 | 9.32 µM |
| C#CCN(C[C@@H]1[C@@H](OC(=O)NC2CCCC2)[C@@H](OC(=O)NC2CCCC2)Cn2c(=O)ccc(=O)n21)S(=O)(=O)c1ccc(C)cc1 | 7.83 µM |
| O=C(/C=C/c1ccccc1)CC(O)(c1ccccc1)C(F)(F)C(F)F (configuration not stated) | 1.1 µM |
| Cc1cccc(C)c1NC(=O)C(c1ccccc1F)n1c(=O)c(-c2ccco2)nc2ccccc21 (configuration not stated) | 5.65 µM |

| Structure (SMILES) | IC50 |
| --- | --- |
| O=C(Nc1ccc2c(c1)OCCO2)C(c1ccnc2ccccc12)n1c(=O)c(-c2ccco2)nc2ccccc21 (configuration not stated) | inactive |
| CCN(CC)CCOc1ccc(/C(=C(\Cl)c2ccccc2)c2ccccc2)cc1 | 2.39 µM |
| O=C1NC(=S)NC(=O)C12C(c1ccccc1)NC(=S)NC2c1ccccc1 (configuration not stated) | 3.88 µM |
| Cc1cc(C)c(C(CC(=O)c2cccs2)C(C#N)C#N)c(C)c1 (configuration not stated) | 8.57 µM |
| CSc1nnc(NC(=O)c2nc(S(=O)(=O)Cc3ccc(C)cc3)ncc2Cl)s1 | 3.88 µM |
| O=c1nc(/C=C/c2ccc(Cl)cc2Cl)cc(C(F)(F)F)[nH]1 | 2.98 µM |
| Cc1ccc(SC2=C(Sc3ccc(C)cc3)C(=O)c3ccccc3C2=O)cc1 | inactive |
| CN(C)CCCN(C(=O)CCc1ccccc1)c1nc2ccc(Cl)cc2s1 | inactive |
| COc1ccccc1C=CC(=O)C=Cc1ccccc1OC | 6.63 µM |
| O=C(NCc1ccccc1)C(C1CC1)n1c(=O)c(-c2ccco2)nc2ccccc21 (configuration not stated) | inactive |
| O=S(=O)(NC1=NCCCCC1)c1ccc2sc(NS(=O)(=O)c3ccc4ccccc4c3)nc2c1 | inactive |
| N#Cc1ccc(C(C(=O)NC2CCCCC2)n2c(=O)c(-c3ccco3)nc3ccccc32)cc1 (configuration not stated) | 4.03 µM |
| CCCCOC(=O)Nc1cc(C(=O)OC)ccc1C(=O)OC | 4.5 µM |
| O=C(/C=C/c1ccc2c(c1)OCCCO2)c1ccccc1O | 5.14 µM |
| COc1ccc(C(C(=O)NC2CCCCC2)n2c(=O)c(-c3ccco3)nc3ccccc32)cc1 (configuration not stated) | 3.87 µM |
| COc1ccc(NC(=O)C(c2ccnc3ccccc23)n2c(=O)c(-c3ccco3)nc3ccccc32)cc1 (configuration not stated) | 7.88 µM |
| Cc1ccc(S(=O)(=O)N2C[C@@]3(O)Cn4c(=O)ccc(=O)n4C[C@@]3(OC(=O)NCC3CCCCC3)C2)cc1 | inactive |
| CC(CCc1ccco1)NC(=O)CCc1nnc2ccc(NCc3ccccc3Cl)nn12 (configuration not stated) | 3.73 µM |
| CCOc1cc(N)c(Cl)cc1C(=O)NCC1CN(Cc2ccc(F)cc2)CCO1 (configuration not stated) | 1.93 µM |
| COc1ccc(NC(=O)C(c2ccccc2)n2c(=O)c(-c3ccco3)nc3ccccc32)cc1 (configuration not stated) | inactive |
| O=C(Cn1c(=O)n(Cc2ccco2)c(=O)c2c3c(sc21)CCCC3)Nc1ccccc1 | inactive |
| Cc1ccc2sc(N(CCCN(C)C)C(=O)CN3C(=O)c4ccccc4C3=O)nc2c1C | inactive |
| N#Cc1ccccc1OCc1cn(CC(=O)c2ccc(O)cc2)nn1 | 5.91 µM |
| O=c1[nH]c(C2CCN(S(=O)(=O)c3ccc(S(=O)(=O)NC4CC4)cc3)CC2)nc2c1nnn2Cc1ccc(F)cc1 | 2.39 µM |
| CCC(=O)Nc1cccc(C(=O)/C=C/c2ccccc2)c1 | 3.05 µM |

| Structure (SMILES) | IC50 |
| --- | --- |
| O=C(NC1CCCCC1)C(c1ccccc1F)n1c(=O)c(-c2ccco2)nc2ccccc21 (configuration not stated) | 4.15 µM |
| COc1ccc(NC(=O)C(c2cccc3ccccc23)n2c(=O)c(-c3ccco3)nc3ccccc32)cc1 (configuration not stated) | inactive |
| N#Cc1ncc(Cc2ccccc2)nc1C#N | inactive |
| CCc1nnc(NC(=O)c2nc(S(=O)(=O)Cc3cccc(C)c3)ncc2Cl)s1 | 4.49 µM |
| O=C(Nc1ccc2c(c1)OCCO2)C(c1ccccc1F)n1c(=O)c(-c2ccco2)nc2ccccc21 (configuration not stated) | inactive |
| Cc1cccc(C)c1NC(=O)C(c1ccccc1)n1c(=O)c(-c2ccco2)nc2ccccc21 (configuration not stated) | 7.69 µM |
| C=C1C(=O)O[C@H]2C[C@H]1[C@@H](OC(C)=O)C/C(C)=C/CC/C(C)=C\CC[C@]2(C)O | 1.6 µM |
| O=C(CF)N(O)c1ccc(C=Cc2ccccc2)cc1 | > 39.9 µM (inactive) |
| CC(=O)Oc1ccc(C23c4ccccc4C2(OC(C)=O)c2cc(OC(C)=O)ccc23)cc1 (configuration not stated) | 1.33 µM |
| CC1=CC(C)(C)Nc2ccc(OC(=O)C(C)N3C(=O)c4ccccc4C3=O)cc21 (configuration not stated) | 3.65 µM |
| COc1cccc2sc(N(CCCN(C)C)C(=O)COc3ccc(Cl)cc3)nc12 | inactive |
| CC(=O)OCC1=C(C(=O)O)N2C(=O)C(NC(=O)CCn3nc(C(F)(F)F)c(Br)c3C3CC3)C2SC1 (configuration not stated) | inactive |
| O=C(Nc1ccc(Cl)cc1)/C(=C/c1cccc(O)c1)c1nc2ccccc2s1 | 1.71 µM |
| CC(=O)Oc1c(Cl)cc(N(C(C)=O)S(=O)(=O)c2ccccc2)c2ccccc12 | 7.06 µM |
| C=C[C@]1(C)C[C@@H](OC(=O)CSCCN(CC)CC)[C@]2(C)C(C)CC[C@]3(CCC(=O)[C@H]32)[C@@H](C)[C@@H]1O (some centres not stated) | 4.62 µM |
| Cc1ccc(NC(=O)CSc2nnc(-c3ccco3)c(-c3ccco3)n2)cc1 | 4.82 µM |
| C#CCN(C[C@@H]1[C@@H](OC(=O)NCC2CCCCC2)[C@@H](OC(=O)NCC2CCCCC2)Cn2c(=O)ccc(=O)n21)S(=O)(=O)c1ccc(C)cc1 | 4.5 µM |
| O=C(NC1CCCCC1)C(c1ccccc1)n1c(=O)c(-c2ccco2)nc2ccccc21 (configuration not stated) | 1.94 µM |
| Cc1ccc2nc3cc([N+](=O)[O-])cc([N+](=O)[O-])c3cc2c1 | 1.09 µM |
| CCCc1nnc(NC(=O)c2nc(S(=O)(=O)Cc3cccc(C)c3)ncc2Cl)s1 | 4.91 µM |
| COc1ccccc1/C=C/C(=O)c1ccccc1 | 9.15 µM |
| Cc1nc(-c2ccccc2)sc1C(=O)/C=C/c1ccccc1 | 2.35 µM |
